Reference: patent US12194042B2, “Uses” (INTRA-CELLULAR THERAPIES, INC., priority 2018, dated 2025)
“Also recorded” adds a separate entry of the source.

Experiments:
Format in all cases: in vivo, human
[1] = tested on: patients with mild to moderate Parkinson's Disease (PD); experiment: Unified Parkinson's Disease Rating Scale (MDS-UPDRS) in the Phase 1/2 study
Procedure: (§1) A Phase 1/2 randomized, double-blind, placebo-controlled, multiple rising dose clinical study was carried out to evaluate Compound 1 (below) in patients with mild to moderate Parkinson's Disease (PD).
(§2) 40 patients with idiopathic PD are recruited for the study. Patients with mild to moderate PD (Hoehn and Yahr staging score of 1-3 assessed in the “On” state) maintained on stable PD therapy are randomly assigned to placebo or 5 cohorts of Compound 1 at 1 mg, 3 mg, 10 mg, 30 mg, and 90 mg administered orally once daily for 7 days. All patients participating in the study are maintained on their stable PD therapy (e.g., dopamine replacement therapies), some of which are taking more than one category of PD therapy. Of the 40 patients, there are 28 receiving carbidopa/L-dopa, 14 receiving a dopamine agonist, 5 receiving amantadine, and 3 receiving MAO inhibitors.
(§3) The efficacy of Compound 1 in improving motor and non-motor symptoms of PD is measured using multiple scales, providing input from both subjects and site raters. Motor performance was improved and motor complications were reduced in the “On” state by Compound 1 relative to placebo treatment as assessed by the Movement Disorder Society Unified Parkinson's Disease Rating Scale (MDS-UPDRS) (FIG. 1). […] (FIGS. 3-4).

[2] = tested on: patients with mild to moderate Parkinson's Disease (PD); experiment: CISI-PD (Clinical Impression of Severity Index for PD) in the Phase 1/2 study; settings: versus placebo; FIG. 4
Procedure: as §1, §2

[3] = tested on: patients with mild to moderate Parkinson's Disease (PD); experiment: Phase 1/2 randomized, double-blind, placebo-controlled, multiple rising dose clinical study: safety and tolerability
Procedure: as §1
(§4) The study is designed to evaluate the safety and tolerability of Compound 1 in patients who are maintained on stable PD therapy. Another objective is to evaluate the pharmacokinetic profile of Compound 1 and explore its potential utility to control motor fluctuations and to evaluate treatment of non-motor symptoms (e.g., daytime sleepiness, dysautonomia) associated with PD. Biomarkers of disease progression (i.e., inflammation) are assessed.
as §2

[4] = Pharmacokinetic profile in the Phase 1/2 study
Procedure: as §4, §2
Plasma steady state is achieved in the first 48 hours and supports once-a-day dosing for future efficacy trials.

[5] = tested on: patients with mild to moderate Parkinson's Disease (PD); experiment: Unified Dyskinesia Rating Scale (UDysRS) in the Phase 1/2 study; settings: FIG. 2
Procedure: as §1, §2, §3

[6] = tested on: patients with mild to moderate Parkinson's Disease (PD); experiment: Hauser Patient Motor Diary in the Phase 1/2 study; settings: rated by subjects, oral once daily for 7 days
Procedure: as §1, §2, §3

[7] = "On" state, relative to placebo, FIG. 1

SMILES: CN1C(=O)c2c(nn(Cc3ccc(-c4cccc(F)n4)cc3)c2Nc2ccccc2)N2C1=N[C@@H]1CCC[C@@H]12 [Compound 1, (6aR,9aS)-5,6a,7,8,9,9a-hexahydro-5-methyl-3-(phenylamino)-2-((4-(6-fluoropyridin-2-yl)phenyl)methyl)-cyclopent[4,5]imidazo[1,2-a]pyrazolo[4,3-e]pyrimidin-4(2H)-one]
- UPDRS scores at end of study (EOS) ([1]; 30 days after cessation of treatment, FIG. 1): Scores increase
- motor complications (MDS-UPDRS) [1, 7]: reduced
- motor performance (MDS-UPDRS) [1, 7]: improved
- UPDRS scores ([1]; by day 7 of treatment, PD patients on stable PD therapy, FIG. 1): decrease scores
- MDS-UPDRS total scale scores ([1]; oral once daily for 7 days): reduces scores
- motor symptoms (UPDRS Part III; clinician ratings of the motor manifestations of PD) ([1]; oral once daily for 7 days, on stable PD therapy): reductions; also recorded: reduces scores
- motor complications including dyskinesias (UPDRS Part IV subscale) ([1]; oral once daily for 7 days, Part IV data not shown): reductions; also recorded: reduces scores
- CISI-PD Motor Complications Score [2]: reductions; also recorded: decreased
- serious adverse events ([3]; 1 mg to 90 mg orally once daily for 7 days): No serious adverse events
- induction or worsening of motor complications ([3]; PD patients receiving concomitant dopamine replacement therapies): did not induce or worsen motor complications
- effects on vital signs, cardiovascular or laboratory parameters ([3]; compared to placebo): no clinically significant effects
- tolerability ([3]; once-daily oral for 7 days, doses from 1 mg to 90 mg): generally well tolerated
- safety profile ([3]; once-daily oral for 7 days, no titration, 1 mg to 90 mg): favorable safety profile
- side effects of dopamine replacement therapies ([3]; patients on dopamine replacement therapies): reduces the side effects
- time to plasma steady state ([4]; once daily oral dosing): ≤ 48 h
- pharmacokinetics (dose linearity) ([4]; parent drug and metabolites, across 1 mg to 90 mg): linear pharmacokinetics
- dyskinesia symptoms / motor complications measured by UDysRS ([5]; oral once daily for 7 days): reductions; also recorded: reduces dyskinesia symptoms
- Objective UDysRS Total Score ([5]; subjects with dyskinesia at baseline, after treatment): Improves
- total On time (Hauser Patient Motor Diary) [6]: increased
- "On" time without dyskinesias (Hauser Patient Motor Diary) ([6]; versus placebo): increases on-time without causing dyskinesia; also recorded: increased
